Test results published in ChEMBL document CHEMBL1781925, “HCV-NS3/4A protease inhibitory iridoid glucosides and dimeric foliamenthoic acid derivatives from Anarrhinum orientale” (J Nat Prod, 2011).

Assays:
[1] = Inhibition of Hepatitis C virus NS3/4A protease using Ac-Asp-Glu-Dap (QXLTM520)-Glu-Glu-Abu-COO-Ala-Ser-Cys(5-FAMsp)-NH2 as substrate after 30 mins by fluorometric assay; parameters: species or system Hepacivirus hominis
Trypsin = Trypsin (Homo sapiens, UniProt P07477+P07478+P35030); assay: Inhibition of human trypsin using hilyte fuor 488-labeled casein as substrate after 30 mins by green protease fluorometric assay; format: protein assay

C[C@]1(O)CC[C@@H]2C(C(=O)O)=CO[C@@H](O[C@@H]3O[C@H](COC(=O)/C=C/c4ccccc4)[C@@H](O)[C@H](O)[C@H]3O)[C@@H]21
IC50 [1]: 100 µM
IC50 (Trypsin): > 200 µM

C[C@]1(O[C@@H]2O[C@H](COC(=O)/C=C/c3ccccc3)[C@@H](O)[C@H](O)[C@H]2O)CC[C@@H]2C(C(=O)O)=CO[C@@H](O[C@@H]3O[C@H](COC(=O)/C=C/c4ccccc4)[C@@H](O)[C@H](O)[C@H]3O)[C@@H]21
IC50 [1]: 125 µM
IC50 (Trypsin): > 200 µM

C/C(=C\CO)CC/C=C(\C)C(=O)OC/C=C(\C)CC/C=C(\C)C(=O)O
IC50 [1]: 126 µM
IC50 (Trypsin): > 200 µM

CC(=O)OC/C=C(\C)CC/C=C(\C)C(=O)OC/C=C(\C)CC/C=C(\C)C(=O)O
IC50 [1]: > 200 µM

C[C@]1(OC(=O)/C=C/c2ccccc2)CC[C@@H]2C(C(=O)O)=CO[C@@H](O[C@@H]3O[C@H](CO)[C@@H](O)[C@H](O)[C@H]3O)[C@@H]21
IC50 [1]: 109 µM
IC50 (Trypsin): > 200 µM
